Data on two molecules can be found in patent US20080025960A1, “Detergents with stabilized enzyme systems” (priority 2006, published 2008).

Where only a bound is given, the exact number is not on record here.

Assay type in all cases: biochemical
In one test the target is T1, glucose oxidase (Aspergillus niger, UniProt P13006).
T1 construct: purchased Genencor OXYGO L-5000
Nature of the test: Premature hydrogen peroxide generation by glucose oxidase in control buffer or AATCC liquid detergent stock (as is) with glucose and inhibitor, dipsticks. The note with it: for Hydrogen Peroxide Generation, PPM H2O2: T = 0+, 500 PPM oxidase; for Hydrogen Peroxide Generation, PPM H2O2 / hydrogen peroxide production / H2O2 generated: as is; for Hydrogen Peroxide Generation, PPM H2O2 / premature hydrogen peroxide generation / H2O2 PPM: 500 mM glucose; for premature hydrogen peroxide generation: liquid detergent formulation, 500 PPM glucose oxidase, over 21 days; for H2O2 PPM: T = 0+, 12, 30, as is, 500 PPM enzyme, 100 mM sodium metabisulfite; for H2O2 generated: time 0+. An excerpt:
In this Example, experiments conducted to assess the stabilization of glucose oxidase in the presence of its substrate (i.e., glucose) and an inhibitor (i.e., sodium hydrogen sulfite) is described. In these experiments, AATCC standard detergent (American Association of Textile Chemists and Colorists Heavy Duty Liquid detergent version 2003 without brightener; key components include linear alkane sulfonate, alcohol ethoxylate, propanediol, citric acid, fatty acid, castic soda and water; purchased from TestFabrics) was used.
In these experiments, 100 mM Tris pH 8.3, with 0.005% TWEEN®-100 surfactant used as a positive control. […] Three two-ml tubes were weighed with 0.990 g of AATCC detergent (lot # 01282004) and another three tubes with 0.990 g of control buffer. Then, 90 mg (500 mM) of glucose substrate were added to all of the tubes. Next, 100, 50, and 10 mM sodium hydrogen sulfite (MW 106.1) were added to each tube respectively, including the control buffer and AATCC detergent control. All of the tubes were placed on a rotary plate for an hour to allow good mixing and solubilization of glucose into the detergent. Then, 500 PPM (0.5 mg, 14.88 ul) glucose oxidase (OXYGO™ L-5000, 5379 U/ml; 33.6 mg/ml; Genencor) was added to six 2-ml tubes (three with glucose/bisulfite containing control buffers and three with glucose/bisulfite containing AATCC detergent). All of the tubes were then set on the rotary plate (60 rpm) at room temperature. Hydrogen peroxide production was measured using dipsticks (peroxidase/ABTS—Baker Testrips;Baker) at various times—t=0+minutes, 12 minutes, and 30 minutes. The tube containing 100 mM bisulfite with glucose, glucose oxidase in liquid detergent was further monitored for premature generation of hydrogen peroxide further over a period of time starting at 1 hr, 12 hr, 7 days, 12 days and up to 21 days.
In these experiments, 100 mM Tris pH 8.3, with 0.005% TWEEN®-100 surfactant was used as a positive control. […] Three two-ml tubes were weighed with 0.990 g of AATCC detergent (lot # 01282004) and another three tubes with 0.990 g of control buffer.
Three two-ml tubes containing 0.990 g of AATCC detergent (lot # 01282004) and another three tubes with 0.990 g of control buffer were weighed. Then, 90 mg (500 mM) glucose substrate was added to each tube. Then, 100, 50, and 10 mM sodium metabisulfite were added to each tube respectively (i.e., both control buffer and AATCC detergent-containing tubes). All of the tubes were placed on a rotary plate for an hour to allow good mixing and solubilization of glucose into the detergent. Next, 500 PPM (0.5 mg, 14.88 ul) glucose oxidase (OXYGO™ L-5000, 5379 U/ml; 33.6 mg/ml; Genencor) was added to six 2-ml tubes (three with glucose/metabisulfite containing control buffers and three with glucose/metabisulfite containing AATCC detergent). All of the tubes were then set on the rotary plate (60 rpm) at room temperature. H2O2 production was measured using dipsticks (peroxidase/ABTS), as described in Examples 1 and 2, for t=0+ minutes, 12 minutes, and 30 minutes. The tube containing 100 mM bisulfite with glucose, glucose oxidase in liquid detergent was further monitored for premature generation of hydrogen peroxide further over a period of time starting at 1 hr, 12 hr, 7 days, 12 days and up to 21 days.

Test [1] concerns the target T2, choline oxidase (Arthrobacter globiformis, UniProt Q7X2H8).
T2 sequence (Q7X2H8 1-546): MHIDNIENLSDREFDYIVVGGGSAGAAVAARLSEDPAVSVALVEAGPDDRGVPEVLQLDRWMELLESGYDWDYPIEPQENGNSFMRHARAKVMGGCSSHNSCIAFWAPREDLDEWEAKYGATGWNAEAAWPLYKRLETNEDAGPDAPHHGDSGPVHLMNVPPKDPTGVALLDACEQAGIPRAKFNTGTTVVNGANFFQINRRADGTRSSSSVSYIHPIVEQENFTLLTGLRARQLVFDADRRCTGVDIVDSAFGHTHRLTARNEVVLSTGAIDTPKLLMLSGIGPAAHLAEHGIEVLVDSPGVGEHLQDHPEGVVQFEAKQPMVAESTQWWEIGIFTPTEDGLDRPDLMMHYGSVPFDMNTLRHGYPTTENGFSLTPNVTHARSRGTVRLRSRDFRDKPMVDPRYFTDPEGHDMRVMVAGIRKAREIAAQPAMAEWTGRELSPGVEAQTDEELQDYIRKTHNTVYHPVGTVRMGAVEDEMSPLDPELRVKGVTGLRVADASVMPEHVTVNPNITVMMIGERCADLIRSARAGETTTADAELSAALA
Description: H2O2 in control buffer or AATCC liquid detergent stock with choline oxidase, choline and inhibitor. The conditions noted are these: for H2O2 PPM: T = 0+, 12, 30 and 60, 1M choline chloride, 10U choline oxidase, 100 mM sodium bisulfite inhibitor (pH7). The method, then: In this Example, experiments conducted to assess the stabilization of choline oxidase in the presence of its substrate (i.e., choline) and an inhibitor (i.e., sodium bisulfite and 2-amino,2-methyl,1-propanol) is described. In these experiments, AATCC standard detergent was used.
(§1) The experiments were conducted as described in Example 1. Choline oxidase produces two moles of H2O2 per mole of choline. The results obtained in these experiments confirmed that choline oxidase was stable in AATCC detergent over 24 hour period tested in presence of choline and inhibitors. […] Upon dilution in wash liquor, detergent containing choline oxidase, choline chloride and an inhibitor (e.g., sodium hydrogen sulfite or 2-amino,2-methyl,1-propanol) produced H2O2 over time, as indicated in Table 5.

Test [2] has as its target T2, choline oxidase. Description: H2O2 in wash liquor with choline oxidase, choline chloride and inhibitor. The conditions noted are these: 2 mM choline chloride, 0.02U choline oxidase, 0.2 mM sodium bisulfite inhibitor (pH7). The procedure: as §1

T1 sequence (P13006 17-605): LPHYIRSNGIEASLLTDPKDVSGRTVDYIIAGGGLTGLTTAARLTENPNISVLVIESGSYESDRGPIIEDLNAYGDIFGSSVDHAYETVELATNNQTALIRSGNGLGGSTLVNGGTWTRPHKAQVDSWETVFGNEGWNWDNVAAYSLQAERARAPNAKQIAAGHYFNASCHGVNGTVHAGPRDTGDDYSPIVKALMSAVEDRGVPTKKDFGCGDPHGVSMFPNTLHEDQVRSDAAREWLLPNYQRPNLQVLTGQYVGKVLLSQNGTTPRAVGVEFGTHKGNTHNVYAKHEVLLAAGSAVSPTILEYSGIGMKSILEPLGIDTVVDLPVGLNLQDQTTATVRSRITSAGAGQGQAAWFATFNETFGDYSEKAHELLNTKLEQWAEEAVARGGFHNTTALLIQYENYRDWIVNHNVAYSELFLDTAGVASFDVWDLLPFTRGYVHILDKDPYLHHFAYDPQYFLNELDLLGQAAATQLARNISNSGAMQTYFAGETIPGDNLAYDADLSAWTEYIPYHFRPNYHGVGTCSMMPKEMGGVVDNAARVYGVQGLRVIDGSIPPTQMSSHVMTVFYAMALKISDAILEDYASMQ

For the molecule `O=S([O-])O.[Na+]` [bisulfite, sodium hydrogen sulfite], the “Hydrogen Peroxide Generation, PPM H2O2” value on glucose oxidase (AATCC Detergent, 10 mM bisulfite) is reported as above 10 PPM; at glucose oxidase (AATCC Detergent, 50 mM bisulfite) it was 10 PPM; on glucose oxidase (AATCC Detergent, 100 mM bisulfite) it was 0 PPM; at glucose oxidase (Control Buffer, 10 mM bisulfite), 1 PPM; on glucose oxidase (Control Buffer, 50 mM bisulfite), 0 PPM; on glucose oxidase (Control Buffer, 100 mM bisulfite), 0 PPM. For the same molecule, the hydrogen peroxide production result on glucose oxidase (Example 3 (metabisulfite), buffer control mixture, 50 mM, various time periods tested) is on record as “did not produce any hydrogen peroxide”; on glucose oxidase (Example 3 (metabisulfite), buffer control mixture, 100 mM, time periods tested), “did not produce any hydrogen peroxide”; at glucose oxidase (buffer control mixture, 50 mM bisulfite, various time periods tested), “did not produce any hydrogen peroxide”; on glucose oxidase (buffer control mixture, 100 mM bisulfite, time periods tested) it was “did not produce any hydrogen peroxide”. Moreover, the “premature hydrogen peroxide generation” value at glucose oxidase (100 mM sodium hydrogen sulfite) is “no premature hydrogen peroxide generation was observed”. The “H2O2 PPM” value at choline oxidase [1] (AATCC Detergent) was 0 PPM; at choline oxidase [1] (Control Buffer), 0 PPM; on choline oxidase [2] (AATCC Detergent, T = 0+) it was 1 PPM; on choline oxidase [2] (AATCC Detergent, T = 12 min), 10 PPM; on choline oxidase [2] (AATCC Detergent, T = 30 min) it was above 10 PPM; at choline oxidase [2] (AATCC Detergent, T = 60 min) it was 30 PPM. Further, the “H2O2 PPM” value on choline oxidase [2] (Control Buffer, T = 0+) is 1 PPM; at choline oxidase [2] (Control Buffer, T = 12 min), 10 PPM; at choline oxidase [2] (Control Buffer, T = 30 min) it was above 10 PPM; at choline oxidase [2] (Control Buffer, T = 60 min) it was 30 PPM. Further, the “premature generation of H2O2 in AATCC detergent stock” value on choline oxidase [1] (sodium hydrogen sulfite 100 mM concentration) is given as “able to stop premature generation of H2O2”. The “character of choline oxidase inhibition” value at choline oxidase [1] (sodium hydrogen sulfite at 100 mM concentration tested) is on record as “reversible inhibitor”.
As to `O=S([O-])S(=O)(=O)[O-].[Na+].[Na+]` [sodium metabisulfite], the “H2O2 PPM” value on glucose oxidase (AATCC Detergent) and at glucose oxidase (Control Buffer) was 0 PPM throughout. Also, the H2O2 generated was 1 PPM on glucose oxidase (buffer control mixture, 10 mM metabisulfite); above 10 PPM on glucose oxidase (detergent mixture, 10 mM metabisulfite); above 10 PPM at glucose oxidase (detergent mixture, 50 mM metabisulfite). For the same molecule, the “premature hydrogen peroxide generation” value on glucose oxidase (100 mM inhibitor) is “no premature hydrogen peroxide generation was observed”.
